Calls of active or inactive are those of the source. The rule behind the calls is not given here.
System: not listed separately
Assay: Protective index, ratio of TD50 for neurotoxicity in ip dosed Swiss mouse to ED50 for anticonvulsant activity in ip dosed Swiss mouse 6 Hz psychomotor seizure model at 0.5 hrs
Format: toxicity, organism-based
Details: in vivo, read-out: Ratio TD50/ED50
In the case of `COC[C@@H](NC(C)=O)C(=O)NCc1ccccc1` [LACOSAMIDE], the selectivity ratio at 0.5 h was 5.26.

System: Mus musculus
Assay: Anticonvulsant activity against ip dosed Swiss mouse seizure model assessed as protection at 0.5 hrs by 6 Hz psychomotor seizure test
Format: functional
Details: not given
With `COC[C@@H](NC(C)=O)C(=O)NCc1ccccc1` [LACOSAMIDE] the ED50 was 6.4 mg/kg.
With `CC1CC(=O)N(CC(=O)N2CCN(c3cccc(C(F)(F)F)c3)CC2)C1=O` (configuration not stated) the ED50 was 52.3 mg/kg.

System: Mus musculus
Assay: Antinociceptive activity in ip dosed Swiss mouse assessed as reduction of formalin-induced licking at MES ED50 pretreated for 0.25 hrs measured during 1 to 5 mins
Format: functional
Parameters: scale not given: the % may be the effect or the level left
Details: not given
Work on `CC(C(=O)N1CCN(c2cccc(Cl)c2)CC1)N1C(=O)CC(C)(C)C1=O` (configuration not stated) yielded an Activity of 44%.
With `CCC(C(=O)N1CCN(c2cccc(Cl)c2)CC1)N1C(=O)CC(C)C1=O` (configuration not stated) the Activity was “inactive”.

System: Mus musculus
Assay: Antinociceptive activity in ip dosed Swiss mouse assessed as reduction of formalin-induced licking at MES ED50 pretreated for 0.25 hrs measured during 15 to 20 mins
Format: functional
Parameters: scale not given: the % may be the effect or the level left
Details: not given
`CC(C(=O)N1CCN(c2cccc(Cl)c2)CC1)N1C(=O)CC(C)(C)C1=O` (configuration not stated) showed an Activity of 91%.
For `CCC(C(=O)N1CCN(c2cccc(Cl)c2)CC1)N1C(=O)CC(C)C1=O` (configuration not stated), the Activity was 93%.

Organism: Rattus norvegicus
Assay: Displacement of [3H]Batrachotoxinin from sodium channel site 2 in rat cerebral cortex at 500 uM after 60 mins by scintillation counting method
Format: tissue-based
Details: not given
For `NC(=O)N1c2ccccc2C=Cc2ccccc21`, the inhibition was 33.6%.

System: Mus musculus
Assay: Anticonvulsant activity against Swiss mouse seizure model assessed as protection at 100 mg/kg, ip pretreated for 0.25 hrs by 6 Hz psychomotor seizure test
Format: functional, organism-based
Details: not given
For `CC(C(=O)N1CCN(c2cccc(Cl)c2)CC1)N1C(=O)CC(C)(C)C1=O` (configuration not stated), the Activity was “Active”.
For `CCC(C(=O)N1CCN(c2cccc(Cl)c2)CC1)N1C(=O)CC(C)C1=O` (configuration not stated), the Activity was “Active”.

System: not listed separately
Assay: Neurotoxicity in ip dosed Swiss mouse seizure model assessed as motor impairment pretreated for 0.5 hrs measured within 60 s by chimney test
Format: toxicity, organism-based
Details: in vivo
Work on `CC1CC(=O)N(CC(=O)N2CCN(c3cccc(C(F)(F)F)c3)CC2)C1=O` (configuration not stated) yielded a TD50 at 0.5 h of 225 mg/kg.

System: Mus musculus
Assay: Anticonvulsant activity in Swiss mouse assessed as protection against maximal electroshock-induced seizures at 300 mg/kg, ip pretreated for 0.25 hrs
Format: functional, organism-based
Details: not given
With `Cc1cccc(N2CCN(C(=O)C(C)N3C(=O)CC(C)C3=O)CC2)c1` (configuration not stated) the Activity was “Active”.
For `CC1CC(=O)N(C(C)C(=O)N2CCN(c3ccccc3C(F)(F)F)CC2)C1=O` (configuration not stated), the Activity was “Active”.
In the case of `CC(C(=O)N1CCN(c2ccccc2Cl)CC1)N1C(=O)CC(C)(C)C1=O` (configuration not stated), the Activity was “inactive”.
With `CC(C(=O)N1CCN(c2cccc(Cl)c2)CC1)N1C(=O)CC(C)(C)C1=O` (configuration not stated) the Activity was “Active”.

System: Mus musculus
Assay: Anticonvulsant activity in Swiss mouse assessed as protection against maximal electroshock-induced seizures at 100 mg/kg, ip pretreated for 1 hr
Format: functional, organism-based
Details: not given
With `Cc1cccc(N2CCN(C(=O)C(C)N3C(=O)CC(C)C3=O)CC2)c1` (configuration not stated) the Activity was “inactive”.
For `CCC(C(=O)N1CCN(c2cccc(Cl)c2)CC1)N1C(=O)CC(C)C1=O` (configuration not stated), the Activity was “inactive”.

System: Mus musculus
Assay: Anticonvulsant activity in ip dosed Swiss mouse assessed as reduction in clonic seizures at 0.5 hrs by subcutaneous pentylenetetrazole seizure test
Format: functional
Details: not given
In the case of `COC[C@@H](NC(C)=O)C(=O)NCc1ccccc1` [LACOSAMIDE], the ED50 was greater than 500 mg/kg.
Work on `CC(C(=O)N1CCN(c2cccc(Cl)c2)CC1)N1C(=O)CC(C)(C)C1=O` (configuration not stated) yielded an ED50 greater than 130 mg/kg.
With `CC1CC(=O)N(CC(=O)N2CCN(c3cccc(C(F)(F)F)c3)CC2)C1=O` (configuration not stated) the ED50 was greater than 200 mg/kg.

Organism: Rattus norvegicus
Assay: Displacement of [3H]Batrachotoxinin from sodium channel site 2 in rat cerebral cortex at 100 uM after 60 mins by scintillation counting method
Format: tissue-based
Details: not given
`NC(=O)N1c2ccccc2C=Cc2ccccc21` showed an inhibition of 17.4%.

System: Mus musculus
Assay: Anticonvulsant activity in Swiss mouse assessed as protection against maximal electroshock-induced seizures at 300 mg/kg, ip pretreated for 0.5 hrs
Format: functional, organism-based
Details: not given
With `Cc1cccc(N2CCN(C(=O)C(C)N3C(=O)CC(C)C3=O)CC2)c1` (configuration not stated) the Activity was “Active”.
With `CC(C(=O)N1CCN(c2cccc(Cl)c2)CC1)N1C(=O)CC(C)(C)C1=O` (configuration not stated) the Activity was “Active”.

System: Mus musculus
Assay: Anticonvulsant activity in Swiss mouse assessed as protection against maximal electroshock-induced seizures at 100 mg/kg, ip pretreated for 2 hrs
Format: functional, organism-based
Details: not given
With `Cc1cccc(N2CCN(C(=O)C(C)N3C(=O)CC(C)C3=O)CC2)c1` (configuration not stated) the Activity was “inactive”.
For `CC1CC(=O)N(C(C)C(=O)N2CCN(c3ccccc3C(F)(F)F)CC2)C1=O` (configuration not stated), the Activity was “inactive”.
For `CC(C(=O)N1CCN(c2cccc(Cl)c2)CC1)N1C(=O)CC(C)(C)C1=O` (configuration not stated), the Activity was “inactive”.
For `CCC(C(=O)N1CCN(c2cccc(Cl)c2)CC1)N1C(=O)CC(C)C1=O` (configuration not stated), the Activity was “inactive”.

System: Mus musculus
Assay: Anticonvulsant activity against Swiss mouse seizure model assessed as protection at 100 mg/kg, ip pretreated for 2 hrs by 6 Hz psychomotor seizure test
Format: functional, organism-based
Details: not given
With `CC(C(=O)N1CCN(c2cccc(Cl)c2)CC1)N1C(=O)CC(C)(C)C1=O` (configuration not stated) the Activity was “inactive”.
With `CCC(C(=O)N1CCN(c2cccc(Cl)c2)CC1)N1C(=O)CC(C)C1=O` (configuration not stated) the Activity was “inactive”.

System: not listed separately
Assay: Protective index, ratio of TD50 for neurotoxicity in ip dosed Swiss mouse to ED50 for anticonvulsant activity in ip dosed MES Swiss mouse model at 0.25 hrs
Format: toxicity, organism-based
Details: in vivo, read-out: Ratio TD50/ED50
For `Cc1cccc(N2CCN(C(=O)C(C)N3C(=O)CC(C)C3=O)CC2)c1` (configuration not stated), the selectivity ratio at 0.25 h was 1.73.
Work on `CC(C(=O)N1CCN(c2cccc(Cl)c2)CC1)N1C(=O)CC(C)(C)C1=O` (configuration not stated) yielded a selectivity ratio at 0.25 h of 1.47.
`CCC(C(=O)N1CCN(c2cccc(Cl)c2)CC1)N1C(=O)CC(C)C1=O` (configuration not stated) showed a selectivity ratio at 0.25 h of 1.91.

System: not listed separately
Assay: Neurotoxicity in ip dosed Swiss mouse seizure model assessed as motor impairment pretreated for 0.25 hrs measured within 60 s by chimney test
Format: toxicity, organism-based
Details: in vivo
In the case of `Cc1cccc(N2CCN(C(=O)C(C)N3C(=O)CC(C)C3=O)CC2)c1` (configuration not stated), the TD50 at 0.25 h was 210 mg/kg.
Compound `CC(C(=O)N1CCN(c2cccc(Cl)c2)CC1)N1C(=O)CC(C)(C)C1=O` (configuration not stated) has a TD50 at 0.25 h of 176 mg/kg.
For `CCC(C(=O)N1CCN(c2cccc(Cl)c2)CC1)N1C(=O)CC(C)C1=O` (configuration not stated), the TD50 at 0.25 h was 223 mg/kg.

System: Mus musculus
Assay: Anticonvulsant activity in ip dosed Swiss mouse assessed as reduction in clonic seizures at 0.25 hrs by subcutaneous pentylenetetrazole seizure test
Format: functional
Details: not given
With `CCC(C(=O)N1CCN(c2cccc(Cl)c2)CC1)N1C(=O)CC(C)C1=O` (configuration not stated) the ED50 was greater than 130 mg/kg.

System: not listed separately
Assay: Protective index, ratio of TD50 for neurotoxicity in ip dosed Swiss mouse to ED50 for anticonvulsant activity in ip dosed Swiss mouse 6 Hz psychomotor seizure model at 0.25 hrs
Format: toxicity, organism-based
Details: in vivo, read-out: Ratio TD50/ED50
`CC(C(=O)N1CCN(c2cccc(Cl)c2)CC1)N1C(=O)CC(C)(C)C1=O` (configuration not stated) showed a selectivity ratio at 0.25 h of 8.91.
In the case of `CCC(C(=O)N1CCN(c2cccc(Cl)c2)CC1)N1C(=O)CC(C)C1=O` (configuration not stated), the selectivity ratio at 0.25 h was 5.13.

System: Mus musculus
Assay: Anticonvulsant activity in Swiss mouse assessed as protection against maximal electroshock-induced seizures at 100 mg/kg, ip pretreated for 0.25 hrs
Format: functional, organism-based
Details: not given
For `CC(C(=O)N1CCN(c2cccc(Cl)c2)CC1)N1C(=O)CC(C)(C)C1=O` (configuration not stated), the Activity was “Active”.

System: Mus musculus
Assay: Anticonvulsant activity in ip dosed Swiss mouse assessed as protection against maximal electroshock-induced seizures at 0.5 hrs
Format: functional
Details: not given
`COC[C@@H](NC(C)=O)C(=O)NCc1ccccc1` [LACOSAMIDE] showed an ED50 of 9.4 mg/kg.
Compound `CC1CC(=O)N(CC(=O)N2CCN(c3cccc(C(F)(F)F)c3)CC2)C1=O` (configuration not stated) has an ED50 of 80.6 mg/kg.

System: not listed separately
Assay: Protective index, ratio of TD50 for neurotoxicity in ip dosed Swiss mouse to ED50 for anticonvulsant activity in ip dosed MES Swiss mouse model at 0.5 hrs
Format: toxicity, organism-based
Details: in vivo, read-out: Ratio TD50/ED50
`COC[C@@H](NC(C)=O)C(=O)NCc1ccccc1` [LACOSAMIDE] gave a selectivity ratio at 0.5 h of 3.6.

System: Mus musculus
Assay: Anticonvulsant activity in ip dosed Swiss mouse assessed as protection against maximal electroshock-induced seizures at 0.25 hrs
Format: functional
Details: not given
Work on `Cc1cccc(N2CCN(C(=O)C(C)N3C(=O)CC(C)C3=O)CC2)c1` (configuration not stated) yielded an ED50 of 122 mg/kg.
Compound `CC(C(=O)N1CCN(c2cccc(Cl)c2)CC1)N1C(=O)CC(C)(C)C1=O` (configuration not stated) has an ED50 of 120 mg/kg.
`CCC(C(=O)N1CCN(c2cccc(Cl)c2)CC1)N1C(=O)CC(C)C1=O` (configuration not stated) gave an ED50 of 117 mg/kg.

System: Mus musculus
Assay: Anticonvulsant activity against ip dosed Swiss mouse seizure model assessed as protection at 0.25 hrs by 6 Hz psychomotor seizure test
Format: functional
Details: not given
Work on `CC(C(=O)N1CCN(c2cccc(Cl)c2)CC1)N1C(=O)CC(C)(C)C1=O` (configuration not stated) yielded an ED50 of 19.8 mg/kg.
`CCC(C(=O)N1CCN(c2cccc(Cl)c2)CC1)N1C(=O)CC(C)C1=O` (configuration not stated) gave an ED50 of 43.5 mg/kg.

System: Mus musculus
Assay: Anticonvulsant activity in Swiss mouse assessed as reduction in clonic seizures at 100 mg/kg, ip pretreated for 2 hrs measured after 30 mins by subcutaneous pentylenetetrazole seizure test
Format: functional, organism-based
Details: not given
For `CC(C(=O)N1CCN(c2cccc(Cl)c2)CC1)N1C(=O)CC(C)(C)C1=O` (configuration not stated), the Activity was “inactive”.

System: Mus musculus
Assay: Anticonvulsant activity in Swiss mouse assessed as protection against maximal electroshock-induced seizures at 300 mg/kg, ip pretreated for 2 hrs
Format: functional, organism-based
Details: not given
In the case of `Cc1cccc(N2CCN(C(=O)C(C)N3C(=O)CC(C)C3=O)CC2)c1` (configuration not stated), the Activity was “inactive”.
In the case of `CC1CC(=O)N(C(C)C(=O)N2CCN(c3ccccc3C(F)(F)F)CC2)C1=O` (configuration not stated), the Activity was “inactive”.
In the case of `CC(C(=O)N1CCN(c2ccccc2Cl)CC1)N1C(=O)CC(C)(C)C1=O` (configuration not stated), the Activity was “inactive”.
In the case of `CCC(C(=O)N1CCN(c2cccc(Cl)c2)CC1)N1C(=O)CC(C)C1=O` (configuration not stated), the Activity was “inactive”.

From ChEMBL document CHEMBL3745637, “New hybrid molecules with anticonvulsant and antinociceptive activity derived from 3-methyl- or 3,3-dimethyl-1-[1-oxo-1-(4-phenylpiperazin-1-yl)propan-2-yl]pyrrolidine-2,5-diones” (Bioorg Med Chem, 2016)
